“Also recorded” adds a separate entry of the source.
Tests used:
[1] = biological target: T1, TPH1 (Homo sapiens, UniProt P17752); assay: Steady-state kinetic study of TPH1 inhibition; format: biochemical
T1 construct: doubly truncated human TPH1 (ΔNH102-ΔCOOH402); made in house; host or cells: E. coli BL21(DE3)
Description: Steady-state kinetic studies were performed to explore the mode of inhibition. […] TPH1 and TH activity assays were performed as indicated above in the absence and presence of three different compound concentrations (TPH1: 0–100 μM; TH: 0–25 μM). Product formation was measured either at a fixed concentration of the cofactor BH4 (200 μM) and varying concentrations of L-Trp (0.937–60 μM) or L-Tyr (3.125–50 μM), respectively, or in the presence of varying concentrations of BH4 (TPH1:12.5–400 μM; TH: 7.4–200 μM) and a fixed concentration of amino acid substrates: 30 μM of L-Trp or 50 μM of L-Tyr, respectively. Kinetic parameters were obtained from the Michaelis–Menten model using nonlinear regression fit [drawing 3] where Vmax is the maximum enzyme velocity and Km the Michaelis–Menten constant.
Lineweaver–Burk plots were obtained by plotting the reciprocal of the rate of the enzyme reaction (1/V) versus the reciprocal substrate concentration (1/[S]) in the absence and presence of compounds.

[2] = tested on: TH; settings: proteome profiling study; cited from earlier work
[3] = biological target: T2, endogenous PAH (Homo sapiens, UniProt P00439); assay: Cellular thermal shift assay (CETSA) in HepG2 cells; format: cell-based; settings: 50 μM compound, 1 h, vs DMSO
T2 construct: increased melting temperatures (ΔTm) of endogenous PAH; endogenous in cells; host or cells: HepG2
T2 sequence (P00439 1-452): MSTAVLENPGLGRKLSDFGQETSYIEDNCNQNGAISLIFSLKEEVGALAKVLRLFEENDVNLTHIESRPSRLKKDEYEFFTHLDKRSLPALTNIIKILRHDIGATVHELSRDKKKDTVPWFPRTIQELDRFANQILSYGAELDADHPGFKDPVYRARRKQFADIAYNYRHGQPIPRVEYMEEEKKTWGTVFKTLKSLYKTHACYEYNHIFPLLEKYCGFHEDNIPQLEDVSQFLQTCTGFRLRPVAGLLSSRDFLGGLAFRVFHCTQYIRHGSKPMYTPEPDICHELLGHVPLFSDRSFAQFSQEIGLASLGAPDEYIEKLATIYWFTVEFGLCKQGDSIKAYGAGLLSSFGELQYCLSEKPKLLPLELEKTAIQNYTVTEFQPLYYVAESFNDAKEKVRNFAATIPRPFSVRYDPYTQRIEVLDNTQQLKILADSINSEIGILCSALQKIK
Description: Then, cells were washed, harvested using trypsin, and pelleted by centrifugation. The pellet was washed twice with PBS supplemented with complete EDTA-free protease inhibitor cocktail (Roche) and divided into 14 aliquots of 35 μL containing 800,000 cells. Cells were then frozen in liquid nitrogen and thawed at 25 °C three times, and each aliquot was heated to a defined temperature by applying a gradient between 39 °C and 69 °C in a thermocycler (peQSTAR, PeQlab; 16-well gradient, 54 °C ± 15 °C). After 3 min incubation, aliquots were snap frozen in liquid nitrogen and thawed at 25 °C. Cell lysates were centrifuged at 20,000 g (4 °C) for 20 min. Supernatants were mixed with 5x loading buffer, heated to 70 °C for 5 min and analyzed by Western blotting. Chemoluminescence signals were recorded with a FusionSL, Vilber Lourmat (peQlab) and quantified using FusionCapt Advance FX7 16.01c software. Calculation of ΔTm was conducted using the Boltzmann sigmoidal model in GraphPad prism 7.01.
Cell lysates used for Western blot analysis were prepared as described in the Methods section (Cellular Thermal Shift Assay). […] Chemoluminescence signals were recorded with an FusionSL, Vilber Lourmat (peQlab) and quantified using FusionCapt Advance FX7 16.01c software.

[4] = biological target: TH (Homo sapiens, UniProt P07101); assay: Steady-state kinetic study of TH inhibition; format: biochemical; settings: for TH Vmax (µmol/(min*mg)): BH4 7.4 – 200 µM / L-Tyr 50 µM
Description: Steady-state kinetic studies were performed to explore the mode of inhibition. […] TH: 0-25 μM). […] Kinetic parameters were obtained from the Michaelis-Menten model using nonlinear regression fit [drawing 3] where Vmax is the maximum enzyme velocity and Km the Michaelis-Menten constant. Lineweaver-Burk plots were obtained by plotting the reciprocal of the rate of the enzyme reaction (1/V) versus the reciprocal substrate concentration (1/[S]) in the absence and presence of compounds.

[5] = tested on: PAH; settings: proteome profiling study; cited from earlier work
[6] = EG22 5 μM, BH4 12.5–400 μM/L-Trp 30 μM
[7] = EG22 5 μM, L-Trp 0.937–60 μM/BH4 200 μM
[8] = EG22 30 μM, BH4 12.5–400 μM/L-Trp 30 μM
[9] = EG22 30 μM, L-Trp 0.937–60 μM/BH4 200 μM
[10] = EG22 100 μM, BH4 12.5–400 μM/L-Trp 30 μM
[11] = EG22 100 μM, L-Trp 0.937–60 μM/BH4 200 μM

T1 sequence (P17752 102-402): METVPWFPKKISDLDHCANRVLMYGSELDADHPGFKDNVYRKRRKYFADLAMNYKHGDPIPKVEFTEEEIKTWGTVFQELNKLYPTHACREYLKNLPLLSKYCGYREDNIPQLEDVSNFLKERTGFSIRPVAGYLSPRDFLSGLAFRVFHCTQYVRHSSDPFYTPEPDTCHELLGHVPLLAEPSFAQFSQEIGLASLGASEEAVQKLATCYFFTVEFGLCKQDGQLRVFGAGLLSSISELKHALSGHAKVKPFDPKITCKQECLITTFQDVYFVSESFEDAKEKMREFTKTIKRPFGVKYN
TH (Homo sapiens, UniProt P07101), sequence (P07101 1-497 isoform P07101-3): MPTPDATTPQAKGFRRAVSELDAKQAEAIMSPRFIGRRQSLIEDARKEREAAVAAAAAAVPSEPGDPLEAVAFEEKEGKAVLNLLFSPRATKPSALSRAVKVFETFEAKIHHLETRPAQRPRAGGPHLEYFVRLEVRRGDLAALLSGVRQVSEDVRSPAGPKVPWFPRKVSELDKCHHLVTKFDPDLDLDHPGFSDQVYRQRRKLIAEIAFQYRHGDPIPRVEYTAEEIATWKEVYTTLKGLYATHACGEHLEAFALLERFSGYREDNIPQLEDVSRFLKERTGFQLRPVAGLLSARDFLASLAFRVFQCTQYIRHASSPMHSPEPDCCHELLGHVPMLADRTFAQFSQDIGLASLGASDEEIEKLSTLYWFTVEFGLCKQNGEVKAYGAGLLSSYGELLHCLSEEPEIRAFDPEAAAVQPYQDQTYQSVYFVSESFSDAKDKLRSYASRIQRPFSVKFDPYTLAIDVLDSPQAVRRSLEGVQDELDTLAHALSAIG

SMILES: O=C(NO)c1ccc(Cl)c(C(=O)Nc2ccc(Cl)cc2)c1 [EG22, 4-Chloro-3-(4-chlorophenylcarbamoyl)-N-hydroxybenzamide]
- mode of TPH1 inhibition, varying BH4 and fixed L-Trp ([1]; EG22 0–100 μM): competitive inhibition; also recorded: mainly competitive
- mode of TPH1 inhibition, varying L-Trp and fixed BH4 ([1]; EG22 0–100 μM): apparent mixed/uncompetitive inhibition; also recorded: mixed noncompetitive/uncompetitive
- Km [1, 6]: 22.3 ± 6.8 µM
- TPH1 Vmax (μmol/(min·mg)) [1, 6]: 3.4 ± 0.2 µmol/min/mg
- Km [1, 7]: 11.7 ± 1.1 µM
- TPH1 Vmax (μmol/(min·mg)) [1, 7]: 4.4 ± 0.2 µmol/min/mg
- Km [1, 8]: 53.8 ± 11.2 µM
- TPH1 Vmax (μmol/(min·mg)) [1, 8]: 3.0 ± 0.2 µmol/min/mg
- Km [1, 9]: 7.5 ± 1.3 µM
- TPH1 Vmax (μmol/(min·mg)) [1, 9]: 3.0 ± 0.2 µmol/min/mg
- Km [1, 10]: 76.9 ± 12.5 µM
- TPH1 Vmax (μmol/(min·mg)) [1, 10]: 2.8 ± 0.2 µmol/min/mg
- Km [1, 11]: 5.5 ± 0.8 µM
- TPH1 Vmax (μmol/(min·mg)) [1, 11]: 2.4 ± 0.1 µmol/min/mg

SMILES: Cc1[nH]c2ccccc2c1CCNCc1ccc(/C=C/C(=O)NO)cc1 [panobinostat, reference compound]
- IC50 [2]: 3300 nM
- ΔTm at 50 µM [3]: 3.7 °C
- mode of TH inhibition versus the amino acid substrate ([4]; panobinostat): mixed noncompetitive/uncompetitive
- mode of TH inhibition toward BH4 ([4]; panobinostat 0–25 μM): mixed competitive/noncompetitive inhibition; also recorded: mainly competitive
- TH Vmax (µmol/(min*mg)) ([4]; panobinostat 2.5 µM): 1.0 ± 0.1 µmol/min/mg
- TH Vmax (µmol/(min*mg)) ([4]; panobinostat 10 µM): 0.32 ± 0.033 µmol/min/mg
- TH Vmax (µmol/(min*mg)) ([4]; panobinostat 25 µM): 0.23 ± 0.029 µmol/min/mg
- IC50 [5]: 200 nM
